# “Also recorded” adds a separate entry of the source. Like-named read-outs stand apart in the source and are kept apart here.
# Key:
# [1] = tested on: influenza A/California/04/2009 (H1N1pdm); test: Oseltamivir with control or low guanosine diet in influenza-infected mice (Example 15); type: in vivo, C57BL/6 mice; settings: oseltamivir IP, BID for five days from four hours pre-infection
# [2] = tested on: influenza A/California/04/2009 (H1N1pdm); test: Mycophenolate mofetil in influenza-infected mice on standard or low nucleotide diet (Example 19); type: in vivo, C57BL/6 mice; settings: for Mean Day of Death (MDD) vs placebo: standard diet
# [3] = tested on: Influenza A virus H1N1 California/07/2009; test: microbe, parasite or virus in culture; type: cell-based
# [4] = tested on: Respiratory syncytial virus A2; test: microbe, parasite or virus in culture; type: cell-based
# Lassa fever virus Josiah = test: organism not typed; type: cell-based; settings: Vero
# [5] = tested on: Rift Valley fever virus MP-12; test: microbe, parasite or virus in culture; type: cell-based
# in vitro [6] = settings: dog
# in vitro [7] = settings: African green monkey
# in vitro [8] = settings: African green monkey; remark: listed apart in the source
# [9] = Cell Titer-Glo toxicity in C-33A cells (HPV16-15); settings: human, C-33A cells
# [10] = tested on: human norovirus (NV, GT1); test: Human norovirus replicon, RNA Hybridization, HG23, primary (16-21); type: cell-based; settings: RNA Hybridization (Replicon), NV GT1, HG23
# From the text: (§1) Secondary testing was done with human norovirus.
# HG23 [11] = test: RNA Hybridization toxicity in HG23 cells (16-21); type: cell-based
# From the text: as §1
# mouse norovirus (MNV-1) = test: Mouse norovirus CPE inhibition (NR), RAW264.7 (17-09); type: cell-based
# [12] = tested on: human norovirus (NV, GT1); test: Human norovirus replicon, qPCR, HG23, secondary (17-14); type: cell-based
# From the text: as §1
# HG23 [13] = test: NR toxicity in HG23 cells (17-14); type: cell-based; settings: NR (Tox)
# From the text: as §1
# Zika Virus [14] = test: Zika prevention, CPE inhibition (Neutral Red), Huh7, 4 h pre-incubation (Zika-138); type: cell-based; settings: Neutral Red (Cytopathic effect), pre-incubated 4 hours prior to infection
# Zika Virus [15] = test: Zika prevention, virus yield reduction (VYR), Huh7, 4 h pre-incubation (Zika-138); type: cell-based; settings: Visual (Virus yield reduction); Huh7; pre-incubated 4 hours prior to infection
# Procedure: (§2) An experiment was carried out as specified in Example 8. In a Zika Prevention Trial, MPA was pre-incubated with human cells 4 hours or 24 hours before Zika virus infection.
# Zika Virus [16] = test: Zika prevention, CPE inhibition (Neutral Red), Huh7, 24 h pre-incubation (Zika-138); type: cell-based; settings: Neutral Red (Cytopathic effect), pre-incubated 24 hours prior to infection
# Zika Virus [17] = test: Zika prevention, virus yield reduction (VYR), Huh7, 24 h pre-incubation (Zika-138); type: cell-based; settings: Visual (Virus yield reduction); Huh7; pre-incubated 24 hours prior to infection
# Procedure: as §2
# Zika Virus [18] = test: Zika prevention, CPE inhibition (Neutral Red), Vero 76, 4 h pre-incubation (Zika-138); type: cell-based; settings: Neutral Red (Cytopathic effect), pre-incubated 4 hours prior to infection
# Zika Virus [19] = test: Zika prevention, virus yield reduction (VYR), Vero 76, 4 h pre-incubation (Zika-138); type: cell-based; settings: Visual (Virus yield reduction), pre-incubated 4 hours prior to infection
# Zika Virus [20] = test: Zika prevention, CPE inhibition (Neutral Red), Vero 76, 24 h pre-incubation (Zika-138); type: cell-based; settings: Neutral Red (Cytopathic effect), pre-incubated 24 hours prior to infection
# Zika Virus [21] = test: Zika prevention, virus yield reduction (VYR), Vero 76, 24 h pre-incubation (Zika-138); type: cell-based; settings: Visual (Virus yield reduction), pre-incubated 24 hours prior to infection
# Vero 76 [22] = tested on: Vero 76
# Vero 76 [23] = tested on: Vero 76; remark: listed apart in the source
# Zika Virus [24] = test: Zika virus cytopathic effect (CPE) inhibition, Vero 76, primary screen (Zika-089); type: cell-based; settings: Zika virus, MR766, Vero 76, primary
# Zika Virus [25] = test: Zika virus CPE inhibition (Neutral Red), Vero 76, secondary (Zika-094); type: cell-based; settings: Neutral Red (Cytopathic effect), MR766
# Zika Virus [26] = test: Zika virus yield reduction (VYR), Vero 76, secondary (Zika-094); type: cell-based; settings: Visual (Virus yield reduction), MR766
# Zika Virus [27] = test: Zika virus CPE inhibition (Neutral Red), Huh7, secondary (Zika-094); type: cell-based; settings: Huh-7, Neutral Red (Cytopathic effect), MR766, Huh7, secondary, read-out: EC50
# Zika Virus [28] = test: Zika virus yield reduction (VYR), Huh7, secondary (Zika-094); type: cell-based; settings: Huh-7, Visual (Virus yield reduction), MR766
# [29] = Toxicity in Vero 76 cells, primary screen (Zika-089); settings: monkey, Vero 76 cells
# [30] = Neutral Red toxicity in Huh7 cells, secondary (Zika-094); settings: human
# [31] = Neutral Red toxicity in Vero 76 cells, secondary (Zika-094); settings: monkey, Vero 76 cells
# Adenovirus5 Adenoid75 = test: Adenovirus 5 CPE inhibition, A549 (ADV-0172); type: cell-based; settings: A549
# A549 = test: Toxicity in A549 cells (ADV-0172); type: cell-based
compound,measurement,setting,value
"CCOC(=O)C1=C[C@@H](OC(CC)CC)[C@H](NC(C)=O)[C@@H](N)C1 [Oseltamivir, oseltamivir]",survival at 21 days post-infection,"[1]; Group A, control diet (Harlan mouse lab diet)",40%
same,survival at 21 days post-infection,"[1]; Group B, low guanosine diet (Purina Mills #5755)",100%
"COc1c(C)c2c(c(O)c1C/C=C(\C)CCC(=O)OCCN1CCOCC1)C(=O)OC2 [MMF, 2-morpholinoethyl ester of mycophenolic acid]",protection (survival) vs placebo,"[2]; low nucleotide diet, MMF 4 mg/kg/day bid for 6 days beginning 4 h pre-infection",significant (P<0.05) protection; also recorded: improved survival outcome
same,Mean Day of Death (MDD) vs placebo,[2]; MMF 4 mg/kg/day PO bid for 6 days,significantly (P<0.05) increased
same,Mean Day of Death (MDD) vs placebo,[2]; MMF 40 mg/kg/day PO bid for 6 days,significantly (P<0.05) increased
NC(=O)c1ncn([C@@H]2O[C@H](CO)[C@@H](O)[C@H]2O)n1 [Ribavirin],EC50,[3],4.1 µM
same,EC50,"[3]; Influenza A virus, H1N1, MDCK",3.7 µM
same,EC50,[4],12 µg/mL
same,EC50,"[4]; human respiratory syncytial virus, MA104",7.6 µg/mL
same,EC50,Lassa fever virus Josiah,32 µM
same,EC50,[5],12 µg/mL
same,EC50,"[5]; Rift Valley fever virus, Vero 76",11 µg/mL
same,CC50,in vitro [6],> 320 µM
same,CC50,in vitro [7],> 100 µM
same,CC50,in vitro [8],> 1000 µg/mL
Nc1nc2c(ncn2CCOCP(=O)(O)O)c(=O)[nH]1 [9-[2-(phosphonomethoxy)ethyl]guanine],CC50,[9],141 µM
C[C@@]1(O)[C@H](O)[C@@H](CO)O[C@H]1n1ccc(N)nc1=O [2′C-methyl cytidine],EC50,[10]; read-out: EC50,6.6 µM
same,EC90,[10]; read-out: EC90,17 µM
same,CC50,HG23 [11],> 300 µM
same,EC50,mouse norovirus (MNV-1),1 µM
same,EC90,mouse norovirus (MNV-1),3.2 µM
same,EC50,[12],6 µM
same,EC90,[12],18 µM
same,CC50,HG23 [13],> 300 µM
same,CC50,RAW264.7,51 µM
C#C[C@@]1(O)[C@H](O)[C@@H](CO)O[C@H]1n1ccc2c(N)ncnc21 [NITD008],EC50,Zika Virus [14],1.1 µg/mL
same,EC90,Zika Virus [15],0.61 µg/mL
same,EC50,Zika Virus [16],0.77 µg/mL
same,EC90,Zika Virus [17],1.0 µg/mL
same,EC50,Zika Virus [18],8.3 µg/mL
same,EC90,Zika Virus [19],7.81 µg/mL
same,EC50,Zika Virus [20],5.1 µg/mL
same,EC90,Zika Virus [21],31.62 µg/mL
same,CC50,Vero 76 [22],>100 µg/mL
same,CC50,Vero 76 [23],>100 µg/mL
O=c1cnn([C@@H]2O[C@H](CO)[C@@H](O)[C@H]2O)c(=O)[nH]1 [6-Azauridine],EC50,"Zika Virus [24]; Vero 76, Neutral Red (Cytopathic effect)",0.35 µg/mL
same,EC50,"Zika Virus [24]; Vero 76, Visual (Cytopathic effect)",0.32 µg/mL
same,EC50,Zika Virus [25],0.37 µg/mL
same,EC90,Zika Virus [26],1.3 µg/mL
same,EC50,Zika Virus [27],1.2 µg/mL
same,EC90,Zika Virus [28],27.4 µg/mL
same,CC50,"[29]; CC50, Neutral Red (Toxicity)",83.3 µg/mL
same,CC50,"[29]; CC50, Visual (Toxicity)",> 100 µg/mL
same,CC50,[30],> 100 µg/mL
same,CC50,[31],9.9 µg/mL
"Nc1ccn([C@H]2CC[C@@H](CO)O2)c(=O)n1 [2,3-Dideoxycytidine]",EC50,Adenovirus5 Adenoid75; Neutral Red (Cytopathic effect),3.2 µg/mL
same,EC50,Adenovirus5 Adenoid75; Visual (Cytopathic effect),3.2 µg/mL
same,CC50,A549; Neutral Red (Toxicity),>100 µg/mL
same,CC50,A549; Visual (Toxicity),>100 µg/mL
